Results published in ChEMBL document CHEMBL5291721, “A preclinical secondary pharmacology resource illuminates target-adverse drug reaction associations of marketed drugs” (Nat Commun, 2023).

How the values were obtained:
[1] = biological target: Delta-type opioid receptor (Homo sapiens, UniProt P41143)
[2] = biological target: Muscarinic acetylcholine receptor M3 (Homo sapiens, UniProt P20309)
[3] = biological target: Glutamate receptor ionotropic, NMDA 1 (Rattus norvegicus, UniProt P35439)
D(3) dopamine receptor = D(3) dopamine receptor (Homo sapiens, UniProt P35462)
Chain of D(3) dopamine receptor (P35462 whole entry): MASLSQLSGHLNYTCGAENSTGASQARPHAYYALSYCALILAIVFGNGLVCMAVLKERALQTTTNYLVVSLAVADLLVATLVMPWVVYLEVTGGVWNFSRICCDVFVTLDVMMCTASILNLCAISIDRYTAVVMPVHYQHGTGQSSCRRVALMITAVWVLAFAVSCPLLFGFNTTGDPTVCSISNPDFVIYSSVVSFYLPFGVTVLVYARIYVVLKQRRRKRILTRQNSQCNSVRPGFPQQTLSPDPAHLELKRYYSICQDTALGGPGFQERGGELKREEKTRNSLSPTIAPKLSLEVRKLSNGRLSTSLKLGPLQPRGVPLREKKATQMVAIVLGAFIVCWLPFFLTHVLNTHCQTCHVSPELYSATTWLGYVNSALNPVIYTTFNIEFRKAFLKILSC

[4] = biological target: Voltage-dependent N-type calcium channel subunit alpha-1B (Rattus norvegicus, UniProt Q02294); assay type: functional
Chain of Voltage-dependent N-type calcium channel subunit alpha-1B (Q02294 whole entry): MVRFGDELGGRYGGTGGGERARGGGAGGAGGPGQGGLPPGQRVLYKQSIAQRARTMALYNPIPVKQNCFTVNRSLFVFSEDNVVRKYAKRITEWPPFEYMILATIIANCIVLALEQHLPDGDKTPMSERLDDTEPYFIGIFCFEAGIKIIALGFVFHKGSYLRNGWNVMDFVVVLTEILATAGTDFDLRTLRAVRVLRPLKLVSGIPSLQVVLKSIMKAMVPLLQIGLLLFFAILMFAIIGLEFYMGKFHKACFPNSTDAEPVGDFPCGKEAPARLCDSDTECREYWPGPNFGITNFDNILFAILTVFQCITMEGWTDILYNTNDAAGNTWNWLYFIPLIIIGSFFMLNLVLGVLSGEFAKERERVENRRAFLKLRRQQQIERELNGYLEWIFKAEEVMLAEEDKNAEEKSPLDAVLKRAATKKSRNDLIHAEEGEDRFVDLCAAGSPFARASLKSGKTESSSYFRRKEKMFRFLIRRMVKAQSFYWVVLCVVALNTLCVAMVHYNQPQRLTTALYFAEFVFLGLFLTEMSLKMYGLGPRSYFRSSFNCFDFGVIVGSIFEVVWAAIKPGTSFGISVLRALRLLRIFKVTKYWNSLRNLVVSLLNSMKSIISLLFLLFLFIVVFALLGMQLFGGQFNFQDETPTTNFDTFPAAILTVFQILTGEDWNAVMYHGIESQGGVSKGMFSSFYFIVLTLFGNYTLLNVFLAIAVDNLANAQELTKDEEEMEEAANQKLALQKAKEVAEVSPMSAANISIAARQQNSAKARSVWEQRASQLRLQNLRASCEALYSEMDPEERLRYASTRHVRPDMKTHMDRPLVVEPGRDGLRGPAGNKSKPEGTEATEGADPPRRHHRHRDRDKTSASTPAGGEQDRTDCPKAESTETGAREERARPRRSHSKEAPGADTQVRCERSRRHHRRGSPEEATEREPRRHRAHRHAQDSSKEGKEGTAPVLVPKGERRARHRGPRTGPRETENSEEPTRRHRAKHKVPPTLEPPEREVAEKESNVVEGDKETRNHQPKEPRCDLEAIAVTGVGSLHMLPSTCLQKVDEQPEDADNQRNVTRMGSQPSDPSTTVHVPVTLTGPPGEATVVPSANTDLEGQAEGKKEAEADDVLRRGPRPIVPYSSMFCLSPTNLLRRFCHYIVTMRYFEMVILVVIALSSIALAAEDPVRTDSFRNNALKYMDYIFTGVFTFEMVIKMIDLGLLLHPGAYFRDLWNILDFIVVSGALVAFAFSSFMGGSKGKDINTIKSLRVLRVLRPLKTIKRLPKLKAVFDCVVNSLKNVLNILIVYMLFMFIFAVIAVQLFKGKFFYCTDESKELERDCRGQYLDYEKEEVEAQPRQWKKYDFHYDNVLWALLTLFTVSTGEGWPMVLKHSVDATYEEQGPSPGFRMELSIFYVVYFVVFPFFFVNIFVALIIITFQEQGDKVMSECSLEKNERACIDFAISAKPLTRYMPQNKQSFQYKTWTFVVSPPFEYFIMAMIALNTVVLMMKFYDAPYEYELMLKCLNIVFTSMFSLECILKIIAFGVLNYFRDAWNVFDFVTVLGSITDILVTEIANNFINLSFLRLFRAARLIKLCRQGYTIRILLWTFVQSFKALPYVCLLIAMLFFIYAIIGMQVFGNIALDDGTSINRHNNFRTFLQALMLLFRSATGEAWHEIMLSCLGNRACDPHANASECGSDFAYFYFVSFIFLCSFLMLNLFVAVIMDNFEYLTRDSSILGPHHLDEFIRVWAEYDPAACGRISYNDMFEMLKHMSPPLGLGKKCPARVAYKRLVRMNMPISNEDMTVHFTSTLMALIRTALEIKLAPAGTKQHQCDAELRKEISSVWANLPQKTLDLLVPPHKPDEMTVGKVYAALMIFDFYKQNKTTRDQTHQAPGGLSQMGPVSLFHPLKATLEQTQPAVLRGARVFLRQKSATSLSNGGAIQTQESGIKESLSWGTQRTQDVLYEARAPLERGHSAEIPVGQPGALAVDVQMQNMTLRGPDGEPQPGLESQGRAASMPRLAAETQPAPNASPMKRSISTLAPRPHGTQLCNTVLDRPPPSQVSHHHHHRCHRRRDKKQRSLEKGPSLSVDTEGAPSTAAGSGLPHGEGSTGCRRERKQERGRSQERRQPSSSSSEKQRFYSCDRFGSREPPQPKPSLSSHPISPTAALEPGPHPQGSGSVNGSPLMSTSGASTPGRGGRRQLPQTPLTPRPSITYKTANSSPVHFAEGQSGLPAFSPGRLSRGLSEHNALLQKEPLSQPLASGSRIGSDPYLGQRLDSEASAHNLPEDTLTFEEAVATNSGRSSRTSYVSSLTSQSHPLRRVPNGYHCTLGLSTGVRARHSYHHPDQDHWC

D(1A) dopamine receptor = D(1A) dopamine receptor (Homo sapiens, UniProt P21728)
[5] = biological target: T1, Type-1 angiotensin II receptor (Homo sapiens, UniProt P30556)
T1 sequence (P30556 whole entry): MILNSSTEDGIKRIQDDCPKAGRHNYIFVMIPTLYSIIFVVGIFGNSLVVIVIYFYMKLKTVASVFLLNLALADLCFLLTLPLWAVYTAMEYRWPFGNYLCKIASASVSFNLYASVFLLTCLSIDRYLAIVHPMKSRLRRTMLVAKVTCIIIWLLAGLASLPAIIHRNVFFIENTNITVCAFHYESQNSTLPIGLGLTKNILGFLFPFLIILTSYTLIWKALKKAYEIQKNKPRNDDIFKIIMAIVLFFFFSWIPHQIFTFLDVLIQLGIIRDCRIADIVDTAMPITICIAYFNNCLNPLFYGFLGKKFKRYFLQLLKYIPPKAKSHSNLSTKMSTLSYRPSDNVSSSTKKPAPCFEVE

Mu-type opioid receptor = Mu-type opioid receptor (Homo sapiens, UniProt P35372)
Chain of Mu-type opioid receptor (P35372 whole entry): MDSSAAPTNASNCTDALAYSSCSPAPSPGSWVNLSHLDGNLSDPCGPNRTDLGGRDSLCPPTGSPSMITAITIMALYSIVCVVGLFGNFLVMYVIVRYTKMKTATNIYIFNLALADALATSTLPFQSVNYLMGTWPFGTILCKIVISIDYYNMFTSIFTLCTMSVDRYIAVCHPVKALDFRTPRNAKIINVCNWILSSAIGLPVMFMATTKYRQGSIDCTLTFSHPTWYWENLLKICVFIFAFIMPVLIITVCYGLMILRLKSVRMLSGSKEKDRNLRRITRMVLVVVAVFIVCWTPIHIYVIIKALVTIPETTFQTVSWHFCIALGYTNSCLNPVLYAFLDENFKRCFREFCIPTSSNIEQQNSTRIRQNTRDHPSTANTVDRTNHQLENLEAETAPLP

Cannabinoid receptor 1 [6] = biological target: T2, Cannabinoid receptor 1 (Homo sapiens, UniProt P21554)
T2 sequence (P21554 whole entry): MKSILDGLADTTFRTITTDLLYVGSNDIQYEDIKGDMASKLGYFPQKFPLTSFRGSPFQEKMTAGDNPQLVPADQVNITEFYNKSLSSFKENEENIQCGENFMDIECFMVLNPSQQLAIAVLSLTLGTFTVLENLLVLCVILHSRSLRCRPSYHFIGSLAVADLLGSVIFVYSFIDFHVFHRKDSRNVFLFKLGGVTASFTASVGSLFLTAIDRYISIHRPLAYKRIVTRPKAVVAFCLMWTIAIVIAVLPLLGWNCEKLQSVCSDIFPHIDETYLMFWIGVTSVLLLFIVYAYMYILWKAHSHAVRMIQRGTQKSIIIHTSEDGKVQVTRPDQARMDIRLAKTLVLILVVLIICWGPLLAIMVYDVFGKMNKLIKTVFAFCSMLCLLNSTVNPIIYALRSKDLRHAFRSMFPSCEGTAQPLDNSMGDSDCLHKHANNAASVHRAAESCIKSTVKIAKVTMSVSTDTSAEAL

[7] = biological target: 5-hydroxytryptamine receptor 2A (Homo sapiens, UniProt P28223); assay type: functional, cell-based
Chain of 5-hydroxytryptamine receptor 2A (P28223 whole entry): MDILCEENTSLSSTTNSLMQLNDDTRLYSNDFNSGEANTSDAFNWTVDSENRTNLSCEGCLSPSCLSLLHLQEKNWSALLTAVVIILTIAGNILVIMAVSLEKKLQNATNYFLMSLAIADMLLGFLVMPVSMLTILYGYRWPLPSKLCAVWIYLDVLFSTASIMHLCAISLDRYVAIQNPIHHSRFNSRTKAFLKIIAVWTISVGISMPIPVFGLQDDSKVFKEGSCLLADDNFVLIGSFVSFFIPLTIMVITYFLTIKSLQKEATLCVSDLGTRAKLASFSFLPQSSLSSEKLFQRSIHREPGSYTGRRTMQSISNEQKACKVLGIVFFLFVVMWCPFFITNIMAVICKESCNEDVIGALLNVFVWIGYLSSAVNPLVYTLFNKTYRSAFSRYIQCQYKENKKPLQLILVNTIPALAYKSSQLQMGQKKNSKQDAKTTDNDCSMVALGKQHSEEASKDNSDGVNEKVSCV

[8] = biological target: T3, Alpha-1A adrenergic receptor (Homo sapiens, UniProt P35348); assay type: functional, cell-based
T3 sequence (P35348 whole entry): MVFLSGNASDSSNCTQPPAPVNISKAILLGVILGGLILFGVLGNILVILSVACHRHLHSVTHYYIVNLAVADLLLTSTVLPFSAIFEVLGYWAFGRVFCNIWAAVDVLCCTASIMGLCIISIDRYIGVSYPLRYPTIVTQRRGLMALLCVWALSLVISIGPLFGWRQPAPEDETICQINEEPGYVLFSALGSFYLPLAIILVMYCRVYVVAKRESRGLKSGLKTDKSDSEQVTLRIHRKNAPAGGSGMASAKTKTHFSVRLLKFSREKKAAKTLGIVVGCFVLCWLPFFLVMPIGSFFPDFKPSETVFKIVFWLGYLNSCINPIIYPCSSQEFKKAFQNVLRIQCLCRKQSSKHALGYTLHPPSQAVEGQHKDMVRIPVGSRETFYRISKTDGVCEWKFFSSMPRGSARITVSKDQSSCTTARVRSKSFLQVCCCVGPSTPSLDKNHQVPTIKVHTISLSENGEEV

Cannabinoid receptor 1 [9] = biological target: T2, Cannabinoid receptor 1; assay type: functional, cell-based
[10] = biological target: T3, Alpha-1A adrenergic receptor; assay type: functional, cell-based; remark: listed apart in the source
[11] = biological target: T4, 5-hydroxytryptamine receptor 1A (Homo sapiens, UniProt P08908); assay type: functional, cell-based
T4 sequence (P08908 whole entry): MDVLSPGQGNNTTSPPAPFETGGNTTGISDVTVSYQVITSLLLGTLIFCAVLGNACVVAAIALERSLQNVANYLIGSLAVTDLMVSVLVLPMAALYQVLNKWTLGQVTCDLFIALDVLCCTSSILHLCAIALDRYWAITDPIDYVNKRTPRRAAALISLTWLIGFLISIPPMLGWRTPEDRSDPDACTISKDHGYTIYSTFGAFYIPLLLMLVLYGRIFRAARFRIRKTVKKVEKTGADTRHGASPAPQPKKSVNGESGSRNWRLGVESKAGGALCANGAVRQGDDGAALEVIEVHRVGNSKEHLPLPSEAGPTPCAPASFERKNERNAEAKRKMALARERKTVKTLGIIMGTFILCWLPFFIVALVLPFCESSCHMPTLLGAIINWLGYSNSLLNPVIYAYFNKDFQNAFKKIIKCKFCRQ

[12] = biological target: T5, Muscarinic acetylcholine receptor M2 (Homo sapiens, UniProt P08172); assay type: functional, cell-based
T5 sequence (P08172 whole entry): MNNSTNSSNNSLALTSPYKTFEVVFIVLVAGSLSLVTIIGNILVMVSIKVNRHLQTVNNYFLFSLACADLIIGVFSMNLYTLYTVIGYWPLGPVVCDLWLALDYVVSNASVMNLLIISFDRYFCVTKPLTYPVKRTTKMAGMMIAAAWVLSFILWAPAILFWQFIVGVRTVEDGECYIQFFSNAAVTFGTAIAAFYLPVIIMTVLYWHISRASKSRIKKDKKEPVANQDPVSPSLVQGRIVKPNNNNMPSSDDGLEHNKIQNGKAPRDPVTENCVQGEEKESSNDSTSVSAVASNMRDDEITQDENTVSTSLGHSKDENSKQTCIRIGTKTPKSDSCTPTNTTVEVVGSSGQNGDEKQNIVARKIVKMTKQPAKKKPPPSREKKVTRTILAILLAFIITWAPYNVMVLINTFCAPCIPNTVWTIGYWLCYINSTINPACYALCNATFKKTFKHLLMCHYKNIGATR

[13] = biological target: T4, 5-hydroxytryptamine receptor 1A; assay type: functional, cell-based; remark: listed apart in the source
Estrogen receptor beta = Estrogen receptor beta (Homo sapiens, UniProt Q92731)
[14] = biological target: T6, Neuropeptide Y receptor type 2 (Homo sapiens, UniProt P49146)
T6 sequence (P49146 whole entry): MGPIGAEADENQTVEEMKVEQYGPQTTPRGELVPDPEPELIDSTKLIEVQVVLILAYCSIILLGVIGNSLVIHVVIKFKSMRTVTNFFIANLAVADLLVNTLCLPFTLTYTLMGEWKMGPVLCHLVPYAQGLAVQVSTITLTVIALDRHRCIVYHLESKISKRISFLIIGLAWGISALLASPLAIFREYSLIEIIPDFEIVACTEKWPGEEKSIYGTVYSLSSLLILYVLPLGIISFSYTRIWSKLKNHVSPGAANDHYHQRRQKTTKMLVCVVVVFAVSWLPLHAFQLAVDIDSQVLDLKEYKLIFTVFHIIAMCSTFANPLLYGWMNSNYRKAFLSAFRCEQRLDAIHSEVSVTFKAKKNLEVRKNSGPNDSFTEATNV
Further: assay procedure not described here.

Chain of Muscarinic acetylcholine receptor M3 (P20309 whole entry): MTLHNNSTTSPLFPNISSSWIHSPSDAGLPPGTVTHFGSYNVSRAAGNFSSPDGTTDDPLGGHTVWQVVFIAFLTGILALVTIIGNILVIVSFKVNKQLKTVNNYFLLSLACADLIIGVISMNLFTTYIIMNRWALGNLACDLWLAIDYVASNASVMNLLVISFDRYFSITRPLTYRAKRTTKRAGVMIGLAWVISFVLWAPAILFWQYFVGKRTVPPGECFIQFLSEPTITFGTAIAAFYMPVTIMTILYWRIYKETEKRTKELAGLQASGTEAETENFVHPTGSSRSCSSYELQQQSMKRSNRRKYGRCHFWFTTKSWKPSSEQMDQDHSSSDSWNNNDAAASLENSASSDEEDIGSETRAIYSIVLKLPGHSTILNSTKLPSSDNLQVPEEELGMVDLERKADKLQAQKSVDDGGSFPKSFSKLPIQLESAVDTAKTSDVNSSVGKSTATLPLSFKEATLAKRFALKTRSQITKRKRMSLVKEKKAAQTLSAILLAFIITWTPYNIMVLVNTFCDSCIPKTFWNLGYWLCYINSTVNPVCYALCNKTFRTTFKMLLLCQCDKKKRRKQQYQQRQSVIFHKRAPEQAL
Chain of Delta-type opioid receptor (P41143 whole entry): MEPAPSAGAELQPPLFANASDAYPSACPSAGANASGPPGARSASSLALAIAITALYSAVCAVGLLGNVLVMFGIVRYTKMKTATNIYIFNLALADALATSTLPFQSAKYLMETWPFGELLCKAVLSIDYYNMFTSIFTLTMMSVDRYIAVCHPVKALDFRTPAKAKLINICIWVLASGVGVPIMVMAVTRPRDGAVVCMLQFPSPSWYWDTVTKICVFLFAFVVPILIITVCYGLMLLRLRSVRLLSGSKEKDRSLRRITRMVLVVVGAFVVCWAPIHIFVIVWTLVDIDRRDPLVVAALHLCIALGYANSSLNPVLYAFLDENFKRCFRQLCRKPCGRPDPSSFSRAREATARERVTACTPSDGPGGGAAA

Compound	AC50 [1]	AC50 [2]	AC50 [3]	AC50 (D(3) dopamine receptor)	AC50 [4]	AC50 (D(1A) dopamine receptor)	AC50 [5]	AC50 (Mu-type opioid receptor)	AC50 (Cannabinoid receptor 1 [6])	AC50 [7]	AC50 [8]	AC50 (Cannabinoid receptor 1 [9])	AC50 [10]	AC50 [11]	AC50 [12]	AC50 [13]	AC50 (Estrogen receptor beta)	AC50 [14]
NC1CCN(c2c(F)cc3c(=O)c(C(=O)O)cn(C4CC4)c3c2Cl)C1 (configuration not stated) [CLINAFLOXACIN]	18 µM	250 µM	–	–	–	–	–	–	–	–	–	–	–	–	–	–	–	–
CCOc1ccc(Cc2cc([C@@H]3O[C@H](CO)[C@@H](O)[C@H](O)[C@H]3O)ccc2Cl)cc1 [DAPAGLIFLOZIN]	> 30 µM	> 30 µM	> 10 µM	> 30 µM	> 10 µM	> 10 µM	> 30 µM	> 30 µM	> 10 µM	–	–	–	–	–	–	–	–	–
COc1ccccc1N1CCN(CC(O)COc2cccc3ccccc23)CC1 (configuration not stated) [NAFTOPIDIL]	12 µM	> 30 µM	> 30 µM	0.42 µM	–	–	–	–	–	> 30 µM	0.46 µM	> 30 µM	> 30 µM	1.2 µM	> 30 µM	> 30 µM	–	–
Cc1oc(=O)oc1CN1CCN(c2cc3c(cc2F)c(=O)c(C(=O)O)c2n3C(C)S2)CC1 (configuration not stated) [PRULIFLOXACIN]	> 30 µM	> 30 µM	> 30 µM	> 30 µM	–	–	–	–	–	> 30 µM	> 30 µM	> 30 µM	> 30 µM	–	> 30 µM	–	–	–
CCCC1O[C@@H]2C[C@H]3[C@@H]4CCC5=CC(=O)C=C[C@]5(C)[C@H]4[C@@H](O)C[C@]3(C)[C@]2(C(=O)CO)O1 (some centres not stated) [BUDESONIDE]	> 30 µM	–	> 10 µM	> 30 µM	–	–	> 10 µM	> 30 µM	> 10 µM	–	–	–	–	> 10 µM	> 10 µM	> 10 µM	–	–
CN1CCN(C2=Nc3ccccc3Sc3ccc(Cl)cc32)CC1 [CLOTHIAPINE]	22 µM	2 µM	> 30 µM	0.35 µM	–	–	–	–	–	> 30 µM	1.2 µM	> 30 µM	> 30 µM	–	> 30 µM	> 30 µM	–	–
CN(C)CCc1c[nH]c2ccc(C[C@H]3COC(=O)N3)cc12 [ZOLMITRIPTAN]	> 10 µM	> 30 µM	> 30 µM	> 30 µM	–	–	> 30 µM	–	–	14 µM	–	> 30 µM	14 µM	–	> 30 µM	–	–	–
CC[C@H]1CN2CCc3cc(OC)c(OC)cc3[C@@H]2C[C@@H]1C[C@H]1NCCc2cc(OC)c(OC)cc21 [EMETINE]	> 30 µM	–	> 30 µM	–	–	–	> 30 µM	18 µM	–	–	> 30 µM	> 30 µM	> 30 µM	–	> 30 µM	> 30 µM	–	–
C=CCN1C[C@H](C(=O)N(CCCN(C)C)C(=O)NCC)C[C@@H]2c3cccc4[nH]cc(c34)C[C@H]21 [CABERGOLINE]	> 30 µM	> 30 µM	> 10 µM	0.0076 µM	–	–	> 10 µM	> 30 µM	–	0.0626 µM	–	> 30 µM	0.599 µM	–	> 30 µM	0.162 µM	–	–
CCC(CC)(CC(=O)Nc1cccc(/C=C/c2nc(C3CCC3)cs2)c1)C(=O)O	–	–	–	–	–	–	> 30 µM	–	–	–	–	–	–	–	–	–	–	–
CN(C)CCC=C1c2ccccc2C=Cc2ccccc21 [CYCLOBENZAPRINE]	> 30 µM	0.35 µM	> 10 µM	1.1 µM	> 10 µM	–	> 30 µM	> 10 µM	> 10 µM	–	0.47 µM	> 30 µM	> 30 µM	> 10 µM	–	> 10 µM	> 30 µM	> 30 µM
CN(C)CC/C=C1\c2ccccc2CSc2ccccc21 [DOTHIEPIN]	> 30 µM	–	> 30 µM	3 µM	–	–	> 30 µM	–	–	> 30 µM	0.87 µM	> 30 µM	> 30 µM	–	> 30 µM	> 30 µM	–	–
CC[C@@H](C(N)=O)N1CCCC1=O	> 30 µM	> 30 µM	> 30 µM	> 30 µM	–	–	> 30 µM	–	–	> 30 µM	> 30 µM	> 30 µM	> 30 µM	> 30 µM	> 30 µM	> 30 µM	–	–
Cc1cc(C)c(NC(=O)CN(CC(=O)O)CC(=O)O)c(C)c1Br [MEBROFENIN]	> 30 µM	> 30 µM	> 30 µM	22 µM	–	–	–	–	–	> 30 µM	> 30 µM	> 30 µM	> 30 µM	–	> 30 µM	–	–	–
COC1=C(OC)C(=O)C(C/C=C(\C)CC/C=C(\C)CC/C=C(\C)CC/C=C(\C)CC/C=C(\C)CC/C=C(\C)CC/C=C(\C)CC/C=C(\C)CC/C=C(\C)CCC=C(C)C)=C(C)C1=O [UBIDECARENONE]	> 30 µM	> 30 µM	> 30 µM	> 30 µM	–	–	–	–	–	> 30 µM	> 30 µM	> 30 µM	> 30 µM	–	> 30 µM	> 30 µM	–	–
CCCCCNC(=N)N/N=C/c1c[nH]c2ccc(OC)cc12 [TEGASEROD]	> 30 µM	> 30 µM	16 µM	3.5 µM	–	0.942 µM	1.8 µM	2.8 µM	10 µM	> 30 µM	2.1 µM	–	> 30 µM	0.87 µM	> 30 µM	> 30 µM	> 30 µM	> 30 µM
O=[N+]([O-])c1cn2c(n1)OC[C@@H](OCc1ccc(OC(F)(F)F)cc1)C2 [PRETOMANID]	> 10 µM	> 10 µM	> 10 µM	> 10 µM	> 10 µM	> 10 µM	> 30 µM	> 10 µM	–	–	–	–	–	–	–	–	–	> 30 µM
CC(=O)c1ccc2c(c1)N(CCCN(C)C)c1ccccc1S2 [ACEPROMAZINE]	–	–	–	0.013 µM	–	–	–	–	–	–	–	–	–	–	–	–	–	–
